Experimental data from patent US11571407B2, “Bicalutamide analogs or (S)-bicalutamide as exocytosis activating compounds for use in the treatment of a lysosomal storage disorder or glycogenosis” (BCN PEPTIDES, S.A., priority 2013, dated 2023).
Marks after values point to notes of the source that are not given here.

Columns and labels:
[1] = test system: fibroblasts from patients affected by different lysosomal storage diseases; assay: Cell viability, MTT assay; type: cell-based, human; set-up: key to Decrease of Cell Viability (%): N.S.: non significant decrease; details: for Decrease of Cell Viability (%): 72 h
Method: Fibroblasts from thirteen patients affected by seven different lysosomal storage diseases (Fabry, Gaucher, Hurler, Niemann-Pick type A/B, Sanfilippo A, Sanfilippo B and Tay-Sachs) were cultured in DMEM (Dulbecco's modified Eagles medium) with 10% fetal bovine serum and in the presence of antibiotics (penicillin and streptomycin), at 37° C. with 5% CO2. All reagents were purchased from PAA Laboratories (Velizy-Villacoublay, France). The fibroblasts of the patients were selected on the basis of availability of fibroblasts and measurable residual activity. The use of human samples was approved by the Ethical Committee of Hospital Clinic, Barcelona
Fibroblasts of early passage (between 5 and 9 passages) were plated in 6- or 24-well plates depending on the test and were treated for 72 hours with increasing concentrations (10 nmol/L, 100 nmol/L, 1 μmol/L, 10 μmol/L, 50 μmol/L and 100 μmol/L) of bicalutamide (Sigma-Aldrich, St. Louis, USA) and (R)- and (S)-bicalutamide (Toronto Research Chemicals Inc., Toronto (Ontario), Canada). Cell viability was evaluated in each cell line for each concentration using the 3-[4,5-dimethylthiazol-2-yl]-2,5-diphenyl tetrazolium bromide (MTT) assay (Sigma-aldrich, St. Louis, USA) described by Sumantran V. N. Cellular chemosensitivity assays: an overview. Methods Mol. Biol. (2011), 731, 219-236.
Fibroblasts from thirteen patients with different lysosomal storage diseases (four patients affected by Sanfilippo B disease patients with different genotypes, three Sanfilippo A disease patients with different genotypes, two Tay-Sachs disease patients with the same genotype, one Gaucher disease patient, one Niemann-PickA/B disease patient, one Hurler disease patient and one Fabry disease patient) were independently treated with different concentrations of (R)- and (S)-bicalutamide (50 and 100 μM). Cell viability was evaluated for each treatment in each cell line using the MTT assay.

[2] = cited from earlier work
[3] = test system: androgen receptors; details: cited from earlier work
[4] = Table 3 patient 1, Sanfilippo B fibroblasts, 50 μM
[5] = Table 3 patient 1, Sanfilippo B fibroblasts, 100 μM
[6] = Table 3 patient 2, Sanfilippo B fibroblasts, 50 μM
[7] = Table 3 patient 2, Sanfilippo B fibroblasts, 100 μM
[8] = Table 3 patient 3, Sanfilippo B fibroblasts, 50 μM
[9] = Table 3 patient 3, Sanfilippo B fibroblasts, 100 μM
[10] = Table 3 patient 4, Sanfilippo B fibroblasts, 50 μM
[11] = Table 3 patient 4, Sanfilippo B fibroblasts, 100 μM
[12] = Table 3 patient 5, Sanfilippo A fibroblasts, 50 μM
[13] = Table 3 patient 5, Sanfilippo A fibroblasts, 100 μM
[14] = Table 3 patient 6, Sanfilippo A fibroblasts, 50 μM
[15] = Table 3 patient 6, Sanfilippo A fibroblasts, 100 μM
[16] = Table 3 patient 7, Sanfilippo A fibroblasts, 50 μM
[17] = Table 3 patient 7, Sanfilippo A fibroblasts, 100 μM
[18] = Table 3 patient 8, Tay-Sachs fibroblasts, 50 μM
[19] = Table 3 patient 8, Tay-Sachs fibroblasts, 100 μM
[20] = Table 3 patient 9, Tay-Sachs fibroblasts, 50 μM
[21] = Table 3 patient 9, Tay-Sachs fibroblasts, 100 μM
[22] = Table 3 patient 10, Gaucher fibroblasts, 50 μM
[23] = Table 3 patient 10, Gaucher fibroblasts, 100 μM
[24] = Table 3 patient 11, Niemann-Pick AB fibroblasts, 50 μM
[25] = Table 3 patient 11, Niemann-Pick AB fibroblasts, 100 μM
[26] = Table 3 patient 12, Hurler fibroblasts, 50 μM
[27] = Table 3 patient 12, Hurler fibroblasts, 100 μM
[28] = Table 3 patient 13, Fabry fibroblasts, 50 μM
[29] = Table 3 patient 13, Fabry fibroblasts, 100 μM

Compound	Decrease of Cell Viability (%) [1, 4]	Decrease of Cell Viability (%) [1, 5]	Decrease of Cell Viability (%) [1, 6]	Decrease of Cell Viability (%) [1, 7]	Decrease of Cell Viability (%) [1, 8]	Decrease of Cell Viability (%) [1, 9]	Decrease of Cell Viability (%) [1, 10] [%]	Decrease of Cell Viability (%) [1, 11]	Decrease of Cell Viability (%) [1, 12]	Decrease of Cell Viability (%) [1, 13]	Decrease of Cell Viability (%) [1, 14] [%]	Decrease of Cell Viability (%) [1, 15] [%]	Decrease of Cell Viability (%) [1, 16] [%]	Decrease of Cell Viability (%) [1, 17] [%]	Decrease of Cell Viability (%) [1, 18] [%]	Decrease of Cell Viability (%) [1, 19] [%]	Decrease of Cell Viability (%) [1, 20] [%]	Decrease of Cell Viability (%) [1, 21]	Decrease of Cell Viability (%) [1, 22]	Decrease of Cell Viability (%) [1, 23]	also measured
C[C@@](O)(CS(=O)(=O)c1ccc(F)cc1)C(=O)Nc1ccc(C#N)c(C(F)(F)F)c1 (single isomer, unassigned) [(R)-BICALUTAMIDE (2)]	20* %	37* %	10* %	26* %	40* %	52* %	0	25* %	N.S.	N.S.	0	0	0	0	0	0	0	N.S.	0%	24* %	Decrease of Cell Viability (%) [1, 24]: 0%; Decrease of Cell Viability (%) [1, 25]: 0%; Decrease of Cell Viability (%) [1, 26]: 0%; Decrease of Cell Viability (%) [1, 27]: 0%; Decrease of Cell Viability (%) [1, 28]: 0%; Decrease of Cell Viability (%) [1, 29]: 0%; half life in plasma ([2]; in vivo): 1 week; concentrations in plasma at the steady state relative to (S)-bicalutamide ([2]; steady state, (R)- versus (S)-bicalutamide): 100 times; anti-androgenic activity [3]: exclusively found in the (R)-enantiomer
C[C@@](O)(CS(=O)(=O)c1ccc(F)cc1)C(=O)Nc1ccc(C#N)c(C(F)(F)F)c1 [(S)-BICALUTAMIDE (1), (2S)-N-[4-cyano-3-(trifluoromethyl)phenyl]-3-[(4-fluorophenyl)sulfonyl]-2-hydroxy-2-methylpropanamide]	0%	0%	0%	0%	0%	0%	0	N.S.	0%	0%	0	0	0	0	0	0	0	N.S.	N.S.	N.S.	Decrease of Cell Viability (%) [1, 24]: N.S.; Decrease of Cell Viability (%) [1, 25]: N.S.; Decrease of Cell Viability (%) [1, 26]: 0%; Decrease of Cell Viability (%) [1, 27]: 0%; Decrease of Cell Viability (%) [1, 28]: 0%; Decrease of Cell Viability (%) [1, 29]: 0%; decrease of cell viability (in words) ([1]; thirteen fibroblast cultures, 50 and 100 μM): did not show any significant decrease of cell viability; anti-androgenic activity [3]: inactive
